Columns and labels:
[1] = biological target: T1, hSN138 (human SNORF138 receptor) (Homo sapiens, UniProt Q8TDU6); test: Activation of CFTR currents in Xenopus oocytes expressing both hSN138 and CFTR (dual electrode voltage clamp); assay type: cell-based; set-up: dose or concentration left out as unconfirmed; details: betamethasone valerate, bullet application, holding potential -80 mV, n=8
T1 construct: expressed in transfected cells; host or cells: Xenopus laevis oocytes (cytoplasmic injection of T3-driven cDNA with T3 RNA polymerase)
T1 sequence (Q8TDU6 1-330): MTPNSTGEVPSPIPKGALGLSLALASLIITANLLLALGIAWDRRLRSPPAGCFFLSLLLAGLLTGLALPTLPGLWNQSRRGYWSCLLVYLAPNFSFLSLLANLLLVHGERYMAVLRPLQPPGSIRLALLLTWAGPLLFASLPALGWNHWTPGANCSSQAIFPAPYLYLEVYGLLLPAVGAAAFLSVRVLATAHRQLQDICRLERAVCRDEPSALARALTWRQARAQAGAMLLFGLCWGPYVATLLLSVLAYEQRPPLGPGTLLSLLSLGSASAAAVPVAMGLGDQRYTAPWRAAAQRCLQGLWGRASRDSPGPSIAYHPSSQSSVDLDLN
Method: Oocytes were injected with a cocktail of T3-driven hSN138 cDNA, T3-RNA polymerase and dNTP with or without T3-driven CFTR cDNA directly into the cytoplasm as previously described (Geib et al., 2001). After 2 days of incubation at 15° C., dual electrode voltage clamp was performed using 3 M KCl-filled glass microelectrodes with resistances of 1-2 MΩ. Unless otherwise specified, oocytes were voltage-clamped at a holding potential of −80 mV. During recordings, oocytes were bathed in continuously flowing (1-3 ml/min) medium containing 96 mM NaCl, 2 mM KCl, 1.8 mM CaCl2, and 5 mM HEPES, pH 7.5 (ND96 Buffer). Drugs were applied by local perfusion from a 10 ml glass capillary tube at a distance of 0.5 mm from the oocyte. […] CFTR channel activity is heavily regulated by the cytosolic levels of cyclic AMP which can be increased by activation of GS-coupled adenylyl cyclase (AC). Therefore, activation of GS-coupled AC pathway is assayed by applying test compound in ND96 solution to oocytes and observing the changes of inward CFTR currents at a holding potential of −80 mV.

CFTR = CFTR currents in Xenopus oocytes expressing CFTR alone (control without receptor); assay type: cell-based; set-up: dose or concentration left out as unconfirmed; details: betamethasone valerate, bullet application, n=4
Method: In the present invention, oocytes are harvested from Xenopus laevis as previously described (Quick and Lester, 1994; Smith et al., 1997). Oocytes were injected with a cocktail of T3-driven hSN138 cDNA, T3-RNA polymerase and dNTP with or without T3-driven CFTR cDNA directly into the cytoplasm as previously described (Geib et al., 2001). After 2 days of incubation at 15° C., dual electrode voltage clamp was performed using 3 M KCl-filled glass microelectrodes with resistances of 1-2 MΩ. Unless otherwise specified, oocytes were voltage-clamped at a holding potential of −80 mV. During recordings, oocytes were bathed in continuously flowing (1-3 ml/min) medium containing 96 mM NaCl, 2 mM KCl, 1.8 mM CaCl2, and 5 mM HEPES, pH 7.5 (ND96 Buffer). Drugs were applied by local perfusion from a […] glass capillary tube at a distance of 0.5 mm from the oocyte. Heterologous expression of GPCRs in Xenopus oocytes has been widely used to determine the identity of signaling pathways activated by agonist stimulation. CFTR channel activity is heavily regulated by the cytosolic levels of cyclic AMP which can be increased by activation of GS-coupled adenylyl cyclase (AC). Therefore, activation of GS-coupled AC pathway is assayed by applying test compound in ND96 solution to oocytes and observing the changes of inward CFTR currents at a holding potential of −80 mV.

- increase of CFTR currents [1]: 9.2±1.9 nA
- changes in CFTR currents (CFTR): no significant changes
SMILES: CCCCC(=O)O[C@]1(C(=O)CO)[C@@H](C)C[C@H]2[C@@H]3CCC4=CC(=O)C=C[C@]4(C)[C@@]3(F)[C@@H](O)C[C@@]21C [betamethasone valerate, fluoro-11b,17,21-trihydroxy-16b-methylpregna-1,4-diene-3,20-dione 17-valerate]

Source: patent US20040214237A1, “DNA encoding SNORF138 and uses thereof” (Synaptic Pharmaceutical Corporation, priority 2002, published 2004)
